From patent publication US11999727B2 (Tango Therapeutics, Inc., priority 2020, dated 2024) come the findings set out here.

For test [1], the target named is T1, PRMT5 (Homo sapiens, UniProt O14744).
T1 construct: purchased Viva (custom protein)
The experiment in a line: PRMT5 biochemical IC50 assay with SAM as cofactor. The settings on record: PRMT5, SAM as cofactor; read-out: SAM IC50.

The target of test [2] is T1, PRMT5. The experiment in a line: PRMT5 biochemical IC50 assay with no cofactor. The settings on record: PRMT5, no cofactor. The text has this:
Table 1 indicates IC50 values (μM) against PRMT5 for exemplary compounds in the presence of SAM as cofactor, with no cofactor, and with MTA as cofactor, respectively (columns 4-6). […] Ki values can be calculated from the IC50 values as described in the Examples section. As detailed in the Examples section, for the assay performed in the presence of SAM, IC50=Ki×1.5 (Ki=IC50/1.5).

Test [3] addresses T1, PRMT5. The experiment in a line: PRMT5 biochemical IC50 assay with MTA as cofactor. The settings on record: PRMT5, MTA as cofactor; read-out: MTA IC50.
For test [4], the system named is HAP1 MTAP-deleted cell line. The experiment in a line: Viability assay, MTAP-deleted cell line. The conditions noted are these: Homo sapiens, HAP1, viability assay, MTAP-deleted cell line; read-out: HAP1 MTAP deleted viability. It is filed as cell-based. An excerpt:
Table 1 additionally indicates IC50 values in a viability assay for the MTAP-deleted cell line (column 10), indicating the effect of treatment with compound on cell survival.

Each structure is given as a SMILES string. Where only a bound is given, the exact number is not on record here.

T1 sequence (O14744 whole entry): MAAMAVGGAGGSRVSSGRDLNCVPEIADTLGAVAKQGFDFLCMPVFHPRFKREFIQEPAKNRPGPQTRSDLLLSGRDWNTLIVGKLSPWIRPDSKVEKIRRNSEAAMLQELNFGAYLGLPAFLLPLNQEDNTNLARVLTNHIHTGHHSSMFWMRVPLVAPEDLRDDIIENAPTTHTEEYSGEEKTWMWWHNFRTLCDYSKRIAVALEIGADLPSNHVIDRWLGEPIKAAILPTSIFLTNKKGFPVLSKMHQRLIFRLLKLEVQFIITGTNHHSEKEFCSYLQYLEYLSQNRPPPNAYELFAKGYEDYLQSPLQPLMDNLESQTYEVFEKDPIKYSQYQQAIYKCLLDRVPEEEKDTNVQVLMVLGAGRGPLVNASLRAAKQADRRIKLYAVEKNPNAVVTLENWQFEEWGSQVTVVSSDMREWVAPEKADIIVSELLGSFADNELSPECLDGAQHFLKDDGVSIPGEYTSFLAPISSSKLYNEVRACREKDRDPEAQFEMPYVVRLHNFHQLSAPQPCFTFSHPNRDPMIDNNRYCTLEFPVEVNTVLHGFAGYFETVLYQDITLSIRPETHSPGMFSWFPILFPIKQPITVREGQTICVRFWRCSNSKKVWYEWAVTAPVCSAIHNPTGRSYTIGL
T1 sequence (Q9BQA1 whole entry partner): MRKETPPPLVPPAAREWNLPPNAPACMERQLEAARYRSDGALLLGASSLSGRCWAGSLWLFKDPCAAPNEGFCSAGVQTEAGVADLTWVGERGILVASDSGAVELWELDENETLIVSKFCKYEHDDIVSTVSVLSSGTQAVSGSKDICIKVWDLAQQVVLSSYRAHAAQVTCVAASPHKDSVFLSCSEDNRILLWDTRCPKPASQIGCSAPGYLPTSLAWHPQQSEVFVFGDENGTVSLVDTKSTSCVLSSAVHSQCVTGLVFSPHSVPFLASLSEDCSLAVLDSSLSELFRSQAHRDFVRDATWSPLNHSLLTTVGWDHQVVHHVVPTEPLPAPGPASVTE

For the compound `CCc1cc(NC(=O)C(=O)N2C[C@@H](C)CC[C@@H]2c2ccc(NS(C)(=O)=O)nc2)cnc1N` (single isomer, unassigned) [Compound 983], the IC50 on PRMT5 [1] was above 0.5 µM; at PRMT5 [2] (read-out: No Cofactor/rel IC50), above 0.5 µM; at PRMT5 [3] it was above 0.5 µM; in test [4] it was above 10 µM.
Regarding `CCc1cc(NC(=O)C(=O)N2C[C@H](C)CC[C@H]2c2ccc3sc(N)nc3c2)cnc1N` (single isomer, unassigned) [Compound 984], the IC50 on PRMT5 [1] is above 0.5 µM; at PRMT5 [2] (read-out: No Cofactor/rel IC50) it was above 0.5 µM; on PRMT5 [3] it was above 0.5 µM; in test [4], above 10 µM.
Consider `C[C@H]1CC[C@H](c2ccc(NS(C)(=O)=O)nc2)N(C(=O)C(=O)Nc2cncc(C(N)=O)c2)C1` (single isomer, unassigned) [Compound 985], for which the IC50 on PRMT5 [1] is above 0.5 µM; on PRMT5 [2] (read-out: No Cofactor/rel IC50), above 0.5 µM; at PRMT5 [3] it was above 0.5 µM; in test [4] it was above 10 µM.
Turning to `C[C@H]1CC[C@H](c2ccc3sc(N)nc3c2)N(C(=O)C(=O)Nc2cncc(C(N)=O)c2)C1` (single isomer, unassigned) [Compound 987], the IC50 was 0.05 to 0.5 µM at PRMT5 [1], 0.05 to 0.5 µM at PRMT5 [2] (read-out: No Cofactor/rel IC50), below 0.05 µM at PRMT5 [3] and 1 to 10 µM in test [4].
As for `Cc1cc(NC(=O)C(=O)N2C[C@H](C)CC[C@H]2c2ccc3c(c2)CCNC3=O)cnc1N` (single isomer, unassigned) [Compound 994], the IC50 at PRMT5 [1] was above 0.5 µM; on PRMT5 [2] (read-out: No Cofactor/rel IC50), above 0.5 µM; at PRMT5 [3] it was above 0.5 µM; in test [4], above 10 µM.
Regarding `CCc1cc(NC(=O)C(=O)N2C[C@@H](C)CC[C@@H]2c2ccc3sc(N)nc3c2)cnc1N` (single isomer, unassigned) [Compound 996], the IC50 at PRMT5 [1] was 0.05 to 0.5 µM; on PRMT5 [2] (read-out: No Cofactor/rel IC50) it was below 0.05 µM; on PRMT5 [3], below 0.05 µM; in test [4], below 1 µM.
With `COc1ncc(NC(=O)C(=O)N2C[C@@H](C)CC[C@@H]2c2ccc(NS(C)(=O)=O)nc2)cc1C(N)=O` (single isomer, unassigned) [Compound 999], the IC50 is above 0.5 µM at PRMT5 [1], above 0.5 µM on PRMT5 [2] (read-out: No Cofactor/rel IC50), above 0.5 µM on PRMT5 [3] and above 10 µM in test [4].
Consider `C[C@@H]1CC[C@@H](c2ccc3sc(N)nc3c2)N(C(=O)C(=O)Nc2cncc(C(N)=O)c2)C1` (single isomer, unassigned) [Compound 1001], for which the IC50 at PRMT5 [1] was above 0.5 µM; at PRMT5 [2] (read-out: No Cofactor/rel IC50), above 0.5 µM; at PRMT5 [3] it was above 0.5 µM; in test [4], above 10 µM.
`Cc1cc(NC(=O)C(=O)N2C[C@@H](C)CC[C@@H]2c2ccc3cc[nH]c(=O)c3c2)cnc1N` (single isomer, unassigned) [Compound 1021]: the IC50 at PRMT5 [1] is above 0.5 µM; at PRMT5 [2] (read-out: No Cofactor/rel IC50) it was above 0.5 µM; at PRMT5 [3], above 0.5 µM; in test [4] it was above 10 µM.
As to `CCc1cc(NC(=O)C(=O)N2C[C@@H](C)CC[C@@H]2c2ccc3sc(C(F)(F)F)nc3c2)cnc1N` (single isomer, unassigned) [Compound 1022], the IC50 at PRMT5 [1] was 0.05 to 0.5 µM; on PRMT5 [2] (read-out: No Cofactor/rel IC50), below 0.05 µM; on PRMT5 [3], below 0.05 µM; in test [4] it was below 1 µM.
`CCc1cc(NC(=O)C(=O)N2C[C@H](C)CC[C@H]2c2ccc3sc(C(F)(F)F)nc3c2)cnc1N` (single isomer, unassigned) [Compound 1027]: the IC50 on PRMT5 [1] is above 0.5 µM; at PRMT5 [2] (read-out: No Cofactor/rel IC50), above 0.5 µM; at PRMT5 [3], above 0.5 µM; in test [4], above 10 µM.
For `COc1ncc(NC(=O)C(=O)N2C[C@H](C)CC[C@H]2c2ccc3sc(C(F)(F)F)nc3c2)cc1C(N)=O` (single isomer, unassigned) [Compound 1030], the IC50 is above 0.5 µM on PRMT5 [1], above 0.5 µM on PRMT5 [2] (read-out: No Cofactor/rel IC50), above 0.5 µM at PRMT5 [3] and above 10 µM in test [4].
As for `Cc1cc(NC(=O)C(=O)N2C[C@H](C)CC[C@H]2c2ccc3cc[nH]c(=O)c3c2)cnc1N` (single isomer, unassigned) [Compound 1031], the IC50 is below 0.05 µM on PRMT5 [1], below 0.05 µM at PRMT5 [2] (read-out: No Cofactor/rel IC50), below 0.05 µM at PRMT5 [3] and below 1 µM in test [4].
For the compound `Cc1cc(NC(=O)C(=O)N2C[C@@H](C)C(F)(F)C[C@@H]2c2cccc3[nH]ncc23)cnc1N` (single isomer, unassigned) [Compound 1034], the IC50 on PRMT5 [1] is above 0.5 µM; on PRMT5 [2] (read-out: No Cofactor/rel IC50), above 0.5 µM; at PRMT5 [3], above 0.5 µM; in test [4] it was above 10 µM.
`Cc1cc(NC(=O)C(=O)N2C[C@H](C)CC[C@H]2c2cccc3[nH]ccc23)cnc1N` (single isomer, unassigned) [Compound 1035]: the IC50 at PRMT5 [1] is 0.05 to 0.5 µM; at PRMT5 [2] (read-out: No Cofactor/rel IC50), 0.05 to 0.5 µM; on PRMT5 [3], below 0.05 µM; in test [4] it was below 1 µM.
Turning to `Cc1cc(NC(=O)C(=O)N2C[C@@H](C)CC[C@@H]2c2cccc3[nH]ccc23)cnc1N` (single isomer, unassigned) [Compound 1038], the IC50 on PRMT5 [1] is above 0.5 µM; on PRMT5 [2] (read-out: No Cofactor/rel IC50) it was above 0.5 µM; at PRMT5 [3] it was above 0.5 µM; in test [4], above 10 µM.
Take `Cc1cc(NC(=O)C(=O)N2C[C@H](C)C(F)(F)C[C@H]2c2cccc3[nH]ncc23)cnc1N` (single isomer, unassigned) [Compound 1041]: the IC50 on PRMT5 [1] is 0.05 to 0.5 µM; at PRMT5 [2] (read-out: No Cofactor/rel IC50), below 0.05 µM; on PRMT5 [3], below 0.05 µM; in test [4], below 1 µM.
Turning to `C[C@H]1CC[C@H](c2ccc(NCC(=O)N(C)C)cc2)N(C(=O)C(=O)Nc2cncc(C(N)=O)c2)C1` (single isomer, unassigned) [Compound 1082], the IC50 on PRMT5 [1] is above 0.5 µM; on PRMT5 [2] (read-out: No Cofactor/rel IC50) it was above 0.5 µM; on PRMT5 [3] it was above 0.5 µM; in test [4], above 10 µM.
As for `C[C@@H]1CC[C@@H](c2cccc(Cl)c2)N(C(=O)C(=O)Nc2cnc(N)c(C3CC3)c2)C1` (single isomer, unassigned) [Compound 1169], the IC50 on PRMT5 [1] is above 0.5 µM; on PRMT5 [2] (read-out: No Cofactor/rel IC50) it was above 0.5 µM; at PRMT5 [3], 0.05 to 0.5 µM; in test [4], above 10 µM.
As to `COc1ncc(NC(=O)C(=O)N2C[C@H](C)CC[C@H]2c2ccc3sc(CCN(C)C)nc3c2)cc1C(N)=O` (single isomer, unassigned) [Compound 1197], the IC50 at PRMT5 [1] was above 0.5 µM; at PRMT5 [2] (read-out: No Cofactor/rel IC50) it was above 0.5 µM; at PRMT5 [3] it was above 0.5 µM; in test [4], 1 to 10 µM.
For the compound `NC(=O)c1cncc(NC(=O)C(=O)N2CCCCC2C2CCCC2O)c1` (stereo not shown) [Compound 169, 5-{2-[2-(2-Hydroxycyclopentyl)piperidin-1-yl]-2-oxoacetamido}pyridine-3-carboxamide], the IC50 at PRMT5 [1] is 0.05 to 0.5 µM; on PRMT5 [2] (read-out: No Cofactor/ rel IC50), above 0.5 µM; at PRMT5 [3], 0.05 to 0.5 µM; in test [4] it was above 10 µM.
Take `NC(=O)c1cncc(NC(=O)C(=O)N2CCC3C(CCCN3Cc3ccccc3)C2)c1` (stereo not shown) [Compound 412, 5-[2-(1-Benzyl-decahydro-1,6-naphthyridin-6-yl)-2-oxoacetamido]pyridine-3-carboxamide]: the IC50 at PRMT5 [1] was 0.05 to 0.5 µM; at PRMT5 [2] (read-out: No Cofactor/rel IC50), above 0.5 µM; at PRMT5 [3], 0.05 to 0.5 µM; in test [4], above 10 µM.
